The record followed here is patent publication US20190225650A1, “PEPTIDOMIMETIC MACROCYCLES AND USE THEREOF IN REGULATING HIF1ALPHA” (AILERON THERAPEUTICS, INC., priority 2013, published 2019).

Experiment [1] concerns the target T1, flag-tagged HIF1α (AA 786-826) / His6-tagged p300 (AA 323-423) complex (Homo sapiens, UniProt Q09472).
T1 construct: His6-tagged p300 (AA 323-423); made in house; host or cells: E. coli (pETDuet vector)
Kind of experiment: HIF1α p300 displacement assay (TR FRET, +CHAPS). Format: binding. The settings on record: read-out: IC50 (nM) (HIF1α_p300 Displacement + CHAPS). The gist of the method:
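In this TR-FRET displacement format, peptides compete HIF1α C-terminal transactivation domain off p300-CH. They were preincubated 1 h at room temperature with 300 nM complex in HEPES pH 7.4/NaCl buffer with 7.5 mM CHAPS and 1 mM DTT. Anti-His-D2 (4 nM) and anti-Flag-K (0.5 μM) followed for 2 h, and a one-site fit of the fluorescence ratio gave IC50.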
On the technique in general: TR-FRET usually uses a lanthanide donor and a delayed reading to cut background.

Experiment [2] concerns HRE-bla ME-180 cells. Kind of experiment: Cell proliferation assay (viability, MTT, 1% FBS). The experiment is classed as cell-based, human. The essentials: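 Viable cell number was measured with the CellTiter 96 (MTT) kit after compounds were applied for a 16 h normoxic (21% O2) pretreatment, followed by further normoxic or hypoxic (1% O2) culture. Cells: 2×10^4 ME-180 per well, Opti-MEM + 1% FBS, 0.5% DMSO vehicle.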

Experiment [3] relates to HRE-bla ME-180 cells. Kind of experiment: Reporter gene assay (HRE-bla ME-180 HIF reporter, GeneBLAzer). The experiment is classed as cell-based, human. The settings on record: for EC50: 24 hour normoxia. The essentials: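 A FRET β-lactamase readout of HIF transcription was used. After compound treatment in 0.3% DMSO/media under normoxic conditions, 20 μl of 6× LiveBLAzer-FRET B/G (CCF4-AM) substrate was added. Plates sat 3 hr at room temperature in the dark and were read at 409 Ex/460Em and 409Ex/530Em on a Synergy 2. Inhibition was compared against DMSO vehicle controls, with chetomin as positive control.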
A general note: In a reporter assay the amount or activity of a reporter protein is the signal.

The structures appear in SMILES notation. Bridge positions count the residues as written; N and C are the ends. Square brackets hold non-standard residues; d marks the D form. Peptide text beside a SMILES is read from it. S5 = C=CCCC[C@](C)(N)C(=O)O; Nle = CCCC[C@H](N)C(=O)O

What is called IC50 is the concentration that inhibits the measured activity by half. Broadly, the EC50 is the concentration that produces a half-maximal response. On to `CCCC[C@H](NC(=O)[C@H](CCC(=O)O)NC(=O)[C@@H](NC(=O)[C@@H](NC(=O)[C@H](CC(C)C)NC(=O)[C@]1(C)CCCC=CCCC[C@](C)(NC(=O)[C@H](C)NC(=O)[C@H](CC(=O)O)NC(=O)[C@@H](NC(=O)[C@H](Cc2ccccc2)NC(C)=O)[C@@H](C)CC)C(=O)N[C@@H](C(C)C)C(=O)N[C@@H](CC(C)C)C(=O)N[C@@H](CCCC)C(=O)N1)C(C)C)[C@@H](C)CC)C(=O)N[C@@H](C)C(=O)N[C@@H](CC(C)C)C(N)=O` [SP-148] (Ac-FIDA[S5]VL[Nle][S5]LVIE[Nle]AL-NH2; staple 5-9), for which the IC50 in experiment [1] is more than 700 nM. In addition, the “Viability 1% FBS AVG (MTT V3-24 hr Normoxia) (μM)” value (shortened to “Viability 1% FBS AVG”) in the experiment with HRE-bla ME-180 cells [2] was “++++ (≥30: ++++)”. Besides, in the experiment with HRE-bla ME-180 cells [3], the “18 h Avg % max inhibition at top conc (HIF Rptr-24 hrs normoxia) (μM)” value (from here on “18 h Avg % max inhibition at top conc”) was “+++ (≤25 but <50: +++)” and the EC50 is more than 30 µM.
As for `CCCC[C@H](NC(=O)[C@H](CCC(=O)O)NC(=O)[C@@H](NC(=O)[C@@H](NC(=O)[C@H](CC(C)C)NC(=O)[C@]1(C)CCCC=CCCC[C@](C)(NC(=O)[C@H](C)NC(=O)[C@H](CC(=O)O)NC(=O)[C@@H](NC(=O)[C@H](Cc2ccccc2)NC(C)=O)[C@@H](C)CC)C(=O)N[C@@H]([C@@H](C)O)C(=O)N[C@@H](CC(C)C)C(=O)N[C@@H](CCCC)C(=O)N1)C(C)C)[C@@H](C)CC)C(=O)N[C@@H](C)C(=O)N[C@@H](CC(C)C)C(N)=O` [SP-149] (Ac-FIDA[S5]TL[Nle][S5]LVIE[Nle]AL-NH2; staple 5-9), the IC50 in experiment [1] is 400 to 700 nM. The “Viability 1% FBS AVG” value with HRE-bla ME-180 cells [2] was “+ (<5: +)”. Further, in the experiment with HRE-bla ME-180 cells [3], the “18 h Avg % max inhibition at top conc” value is on record as “++++ (≥50: ++++)” and the EC50 lay within 5 to 15 µM.
The like results for `CCCC[C@H](NC(=O)[C@H](CCC(=O)O)NC(=O)[C@@H](NC(=O)[C@@H](NC(=O)[C@H](CC(C)C)NC(=O)[C@]1(C)CCCC=CCCC[C@](C)(NC(=O)[C@H](CCC(=O)O)NC(=O)[C@H](CC(=O)O)NC(=O)[C@@H](NC(=O)[C@H](Cc2ccccc2)NC(C)=O)[C@@H](C)CC)C(=O)N[C@@H](C(C)C)C(=O)N[C@@H](CC(C)C)C(=O)N[C@@H](C)C(=O)N1)C(C)C)[C@@H](C)CC)C(=O)N[C@@H](C)C(=O)N[C@@H](CC(C)C)C(N)=O` [SP-152] (Ac-FIDE[S5]VLA[S5]LVIE[Nle]AL-NH2; staple 5-9) were, in that order, 400 to 700 nM, “++++ (≥30: ++++)”, “+++ (≤25 but <50: +++)” and more than 30 µM.
With `CCCC[C@H](NC(=O)[C@H](CCC(=O)O)NC(=O)[C@@H](NC(=O)[C@@H](NC(=O)[C@H](CC(C)C)NC(=O)[C@]1(C)CCCC=CCCC[C@](C)(NC(=O)[C@H](CCC(=O)O)NC(=O)[C@H](CC(=O)O)NC(=O)[C@@H](NC(=O)[C@H](Cc2ccccc2)NC(C)=O)[C@@H](C)O)C(=O)N[C@@H](C(C)C)C(=O)N[C@@H](CC(C)C)C(=O)N[C@@H](CCCC)C(=O)N1)C(C)C)[C@@H](C)CC)C(=O)N[C@@H](C)C(=O)N[C@@H](CC(C)C)C(N)=O` [SP-153] (Ac-FTDE[S5]VL[Nle][S5]LVIE[Nle]AL-NH2; staple 5-9), the IC50 in experiment [1] lay within 400 to 700 nM. In addition, the “Viability 1% FBS AVG” value in the experiment with HRE-bla ME-180 cells [2] was “++++ (≥30: ++++)”. Further, in the experiment on HRE-bla ME-180 cells [3], the “18 h Avg % max inhibition at top conc” value is on record as “+ (<10: +)” and the EC50 is more than 30 µM.
The like results for `CCCC[C@H](NC(=O)[C@H](CCC(=O)O)NC(=O)[C@@H](NC(=O)[C@@H](NC(=O)[C@H](CC(C)C)NC(=O)[C@]1(C)CCCC=CCCC[C@](C)(NC(=O)[C@H](CCC(=O)O)NC(=O)[C@H](CC(=O)O)NC(=O)[C@H](CO)NC(=O)[C@H](Cc2ccccc2)NC(C)=O)C(=O)N[C@@H](C(C)C)C(=O)N[C@@H](CC(C)C)C(=O)N[C@@H](CCCC)C(=O)N1)C(C)C)[C@@H](C)CC)C(=O)N[C@@H](C)C(=O)N[C@@H](CC(C)C)C(N)=O` [SP-154] (Ac-FSDE[S5]VL[Nle][S5]LVIE[Nle]AL-NH2; staple 5-9) were, in that order, 200 to 400 nM, “++++ (≥30: ++++)”, “+ (<10: +)” and more than 30 µM.
Turning to `CCCC[C@H](NC(=O)[C@H](CCC(=O)O)NC(=O)[C@@H](NC(=O)[C@@H](NC(=O)[C@H](CC(C)C)NC(=O)[C@]1(C)CCCC=CCCC[C@](C)(NC(=O)[C@H](CCC(=O)O)NC(=O)[C@H](CCCNC(=N)N)NC(=O)[C@@H](NC(=O)[C@H](Cc2ccccc2)NC(C)=O)[C@@H](C)CC)C(=O)N[C@@H](C(C)C)C(=O)N[C@@H](CC(C)C)C(=O)N[C@@H](CCCC)C(=O)N1)C(C)C)[C@@H](C)CC)C(=O)N[C@@H](C)C(=O)N[C@@H](CC(C)C)C(N)=O` [SP-155] (Ac-FIRE[S5]VL[Nle][S5]LVIE[Nle]AL-NH2; staple 5-9), the IC50 in experiment [1] was more than 700 nM. For the same molecule, in the experiment on HRE-bla ME-180 cells [2], the “Viability 1% FBS AVG” value was “++++ (≥30: ++++)”. Also, in the experiment with HRE-bla ME-180 cells [3], the “18 h Avg % max inhibition at top conc” value is reported as “++ (≤10 but <25: ++)” and the concentration for a half-maximal effect (EC50) is more than 30 µM.
